This is an account of results in ChEMBL document CHEMBL6127018, “Molecular design and evaluation of aza-polycyclic carbamoyl pyridones as HIV-1 integrase strand transfer inhibitors” (Bioorg Med Chem Lett, 2024).

A word on the IC50: it is the concentration needed to halve the response being measured. Broadly, the EC50 is the concentration that produces a half-maximal response. Read a low EC50 as a more potent agent. As a reminder, the CC50 is the concentration that lowers cell viability or growth by half. High values mean better tolerance by the cells, low ones harm at low concentration.

The target of data set [1] is Human immunodeficiency virus type 1 integrase (Human immunodeficiency virus 1, UniProt Q7ZJM1). Description: Inhibition of recombinant HIV-1 integrase by microtiter plate integration assay.
The subject of data set [2] is Human immunodeficiency virus 1. Description: Antiviral activity against HIV-1 infected in human MT4 cells. It is filed as functional, organism-based. The following applies: Human immunodeficiency virus 1, MT4.
Data set [3] in a line: Cytotoxicity against human MT4 cells. The format is toxicity, cell-based.
Data set [4] in a line: Selectivity ratio of PAEC50 for antiviral activity against HIV-1 infected in human MT4 cells in presence of human serum albumin to EC50 for antiviral activity against HIV-1 infected in human MT4 cells. It is filed as functional, Human immunodeficiency virus 1.
Data set [5] has as its system Human immunodeficiency virus 1. Description: Antiviral activity against HIV-1 harboring raltegravir resistant Q148H mutant infected in human HeLa-CD4 cells assessed as fold change. The format is functional.

Chain of Human immunodeficiency virus type 1 integrase (Q7ZJM1 whole entry): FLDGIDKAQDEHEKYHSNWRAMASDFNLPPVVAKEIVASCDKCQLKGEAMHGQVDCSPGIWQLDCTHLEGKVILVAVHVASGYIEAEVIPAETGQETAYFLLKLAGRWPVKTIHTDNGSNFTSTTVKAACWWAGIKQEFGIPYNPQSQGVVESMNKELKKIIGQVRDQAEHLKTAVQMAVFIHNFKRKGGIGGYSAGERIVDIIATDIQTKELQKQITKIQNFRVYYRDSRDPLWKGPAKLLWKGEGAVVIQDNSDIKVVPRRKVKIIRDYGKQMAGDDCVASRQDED

Consider `O=C(NCc1ccc(F)cc1F)c1cn2c(c(O)c1=O)C(=O)N1CCCCCN1C2`, for which the IC50 in data set [1] came out at 6.2 nM. The same compound displayed an EC50 in data set [2] of 3.5 nM. For the same compound, in data set [3], half-maximal cytotoxicity (CC50) was put at 17000 nM. Besides, the Selectivity ratio in data set [4] amounted to 400.

As to `CN1Cn2cc(C(=O)NCc3ccc(F)cc3F)c(=O)c(O)c2C(=O)N1CCO`, the IC50 in data set [1] came out at 4.9 nM. Besides, the EC50 in data set [2] stood at 15 nM. For the same compound, the CC50 in data set [3] is more than 50000 nM. The Selectivity ratio in data set [4] is 18.

In the case of `CN1NCn2cc(C(=O)NCc3ccc(F)cc3F)c(=O)c(O)c2C1=O`, the 50% inhibitory concentration (IC50) in data set [1] was 4.8 nM. The EC50 in data set [2] worked out at 3.9 nM. Besides, the CC50 in data set [3] turned out to be 34000 nM. Also, the Selectivity ratio in data set [4] is given as 12.

On to `COCCN1C(=O)c2c(O)c(=O)c(C(=O)NCc3ccc(F)cc3F)cn2CN1C`, for which, in data set [1], the IC50 came to 4.5 nM. The compound further came in with an EC50 in data set [2] of 1.4 nM. This compound also returned a CC50 in data set [3] of 18000 nM. In data set [4], the Selectivity ratio is 24. In data set [5], the “fold change (FC)” value stood at 1.7.

Take `CN1Cn2cc(C(=O)NCc3ccc(F)cc3F)c(=O)c(O)c2C(=O)N1`: the IC50 in data set [1] worked out at 4.5 nM. This compound also came in with an EC50 in data set [2] of 29 nM. The CC50 in data set [3] is more than 50000 nM. In addition, the Selectivity ratio in data set [4] was 8.4.

Regarding `CN1C(=O)c2c(O)c(=O)c(C(=O)NCc3ccc(F)cc3F)cn2CN1CCO`, in data set [1], the IC50 worked out at 4.7 nM. The compound also showed an EC50 in data set [2] of 20 nM. Also, the CC50 in data set [3] was more than 50000 nM. The Selectivity ratio in data set [4] was found to be 3.1.

Regarding `COCCN1Cn2cc(C(=O)NCc3ccc(F)cc3F)c(=O)c(O)c2C(=O)N1C`, in data set [1], the IC50 came to 4.4 nM. The same compound returned an EC50 in data set [2] of 1.6 nM. The compound also registered a CC50 in data set [3] of 15000 nM. In addition, in data set [4], the Selectivity ratio was 14. Besides, the “fold change (FC)” value in data set [5] is 2.3.

Take `CC(=O)NCCN1Cn2cc(C(=O)NCc3ccc(F)cc3F)c(=O)c(O)c2C(=O)N1C`: the IC50 in data set [1] was determined as 9 nM. Besides, the EC50 in data set [2] was found to be 120 nM. This compound also yielded a CC50 in data set [3] of more than 50000 nM. Moreover, the Selectivity ratio in data set [4] is 2.8.

As to `O=C(NCc1ccc(F)cc1F)c1cn2c(c(O)c1=O)C(=O)N1CCCN1C2`, the IC50 in data set [1] amounted to 3.4 nM. Also, the response in data set [2] was half-maximal at 2.2 nM (EC50). Moreover, the CC50 in data set [3] was more than 50000 nM. Further, the Selectivity ratio in data set [4] is given as 12.

For the compound `O=C(NCc1ccc(F)cc1)c1cn2c(c(O)c1=O)C(=O)N1CCCCN1C2`, in data set [1], the IC50 was found to be 4.5 nM. In addition, the midpoint of the response in data set [2], the EC50, lay at 1.8 nM. Also, in data set [3], the midpoint of cytotoxicity, the CC50, lay at 23000 nM. The Selectivity ratio in data set [4] came to 215.

As to `COCCN1CN(C(c2ccccc2)c2ccccc2)n2cc(C(=O)NCc3ccc(F)cc3F)c(=O)c(O)c2C1=O`, the EC50 in data set [2] amounted to 57000 nM.

With `O=C(NCc1ccc(F)cc1)c1cn2c(c(O)c1=O)C(=O)N1CCCN1C2`, in data set [1], the IC50 was found to be 5.2 nM. Besides, the EC50 in data set [2] was 3.6 nM. Also, in data set [3], the midpoint of cytotoxicity, the CC50, lay at 41000 nM. In addition, in data set [4], the Selectivity ratio is on record as 9.1.

For `CCN1Cn2cc(C(=O)NCc3ccc(F)cc3F)c(=O)c(O)c2C(=O)N1`, in data set [1], the IC50 is 4.5 nM. In data set [2], this compound displayed an EC50 of 11 nM. Besides, in data set [3], the CC50 was more than 50000 nM. The Selectivity ratio in data set [4] was 44.

For `CC(C)N1NCn2cc(C(=O)NCc3ccc(F)cc3F)c(=O)c(O)c2C1=O`, the concentration for half-maximal inhibition (IC50) in data set [1] was 4.3 nM. The 50% effective concentration (EC50) in data set [2] worked out at 1.7 nM. This compound also yielded a CC50 in data set [3] of 15000 nM. For the same compound, in data set [4], the Selectivity ratio is listed as 34.

Regarding `CN1Cn2cc(C(=O)NCc3ccc(F)cc3F)c(=O)c([O-])c2C(=O)N1C.[Na+]`, the IC50 in data set [1] stood at 3.7 nM. The compound also yielded an EC50 in data set [2] of 2.4 nM. In addition, the CC50 in data set [3] is more than 50000 nM. Moreover, the Selectivity ratio in data set [4] is 52.

As for `O=C(NCc1ccc(F)cc1F)c1cn2c(c(O)c1=O)C(=O)N1CCOCCN1C2`, the half-maximal inhibitory concentration (IC50) in data set [1] was 8.7 nM. In data set [2], this compound gave a concentration for a half-maximal effect (EC50) of 4.6 nM. Besides, in data set [3], it took 32000 nM to reach half-maximal cytotoxicity (CC50). In addition, the Selectivity ratio in data set [4] is listed as 20.

Regarding `C[C@@H]1CCO[C@H]2Cn3cc(C(=O)NCc4ccc(F)cc4F)c(=O)c(O)c3C(=O)N12` [DOLUTEGRAVIR], a half-maximal effect in data set [2] (EC50) was put at 2.1 nM. For the same compound, in data set [3], the CC50 worked out at 15000 nM. Also, the “fold change (FC)” value in data set [5] turned out to be 0.74.
